Test results published in article PMC6742641, “Design, synthesis and biological evaluation of a series of CNS penetrant HDAC inhibitors structurally derived from amyloid-β probes” (Scientific Reports, 2019).
Like-named read-outs stand apart in the source and are kept apart here.

Legend:
HDAC3 = molecular target: T1, HDAC3 (Homo sapiens, UniProt O15379); assay: HDAC activity assay (fluorimetric, BPS Biosciences); assay type: biochemical; settings: class I; mean ± SD (n = 2)
T1 construct: purchased BPS Biosciences
Description: (§1) HDAC1, 3, 6 and 7 activity assays were performed according to the manufacturer’s protocol (BPS Biosciences). […] The HDAC assay developer was added to the mixture and incubated the plate at rt for 15 min. The fluorescence intensity was measured using a Tecan Infinite F200 Pro plate reader.

HDAC7 = molecular target: T2, HDAC7 (Homo sapiens, UniProt Q8WUI4); assay: as above; assay type: biochemical; settings: class IIa in Table 4; mean ± SD (n = 2)
T2 construct: purchased BPS Biosciences
T2 sequence (Q8WUI4 1-952): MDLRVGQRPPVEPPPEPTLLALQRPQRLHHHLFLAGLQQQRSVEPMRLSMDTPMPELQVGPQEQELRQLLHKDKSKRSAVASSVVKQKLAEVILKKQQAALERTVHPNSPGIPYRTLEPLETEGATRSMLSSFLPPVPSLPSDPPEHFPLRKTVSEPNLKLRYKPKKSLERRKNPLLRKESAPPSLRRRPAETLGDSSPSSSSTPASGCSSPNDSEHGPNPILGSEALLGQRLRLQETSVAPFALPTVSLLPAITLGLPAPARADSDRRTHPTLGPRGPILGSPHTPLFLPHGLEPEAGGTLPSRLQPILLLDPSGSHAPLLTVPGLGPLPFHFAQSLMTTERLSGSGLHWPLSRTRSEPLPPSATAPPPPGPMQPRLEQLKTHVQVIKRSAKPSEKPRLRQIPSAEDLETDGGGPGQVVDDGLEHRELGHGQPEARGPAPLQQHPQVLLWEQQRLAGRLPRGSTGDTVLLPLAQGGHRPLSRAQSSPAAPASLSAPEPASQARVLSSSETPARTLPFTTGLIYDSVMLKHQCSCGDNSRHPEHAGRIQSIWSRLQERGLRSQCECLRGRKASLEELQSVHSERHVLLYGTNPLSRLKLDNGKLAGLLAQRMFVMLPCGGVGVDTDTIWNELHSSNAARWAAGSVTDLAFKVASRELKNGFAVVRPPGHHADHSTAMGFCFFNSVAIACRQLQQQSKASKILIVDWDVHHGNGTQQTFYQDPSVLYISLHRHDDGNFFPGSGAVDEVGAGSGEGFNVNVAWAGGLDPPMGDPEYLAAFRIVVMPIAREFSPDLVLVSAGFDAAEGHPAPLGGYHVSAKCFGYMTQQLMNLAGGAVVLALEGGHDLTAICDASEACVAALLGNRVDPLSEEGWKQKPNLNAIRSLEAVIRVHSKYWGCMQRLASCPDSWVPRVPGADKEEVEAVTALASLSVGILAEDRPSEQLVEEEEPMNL
Description: as §1

HDAC1 = molecular target: T3, HDAC1 (Homo sapiens, UniProt Q13547); assay: as above; assay type: biochemical; settings: class I; mean ± SD (n = 2)
T3 construct: purchased BPS Biosciences
Description: as §1

HDAC6 = molecular target: T4, HDAC6 (Homo sapiens, UniProt Q9UBN7); assay: as above; assay type: biochemical; settings: class IIb in Table 4; mean ± SD (n = 2)
T4 construct: purchased BPS Biosciences
T4 sequence (Q9UBN7 1-1215): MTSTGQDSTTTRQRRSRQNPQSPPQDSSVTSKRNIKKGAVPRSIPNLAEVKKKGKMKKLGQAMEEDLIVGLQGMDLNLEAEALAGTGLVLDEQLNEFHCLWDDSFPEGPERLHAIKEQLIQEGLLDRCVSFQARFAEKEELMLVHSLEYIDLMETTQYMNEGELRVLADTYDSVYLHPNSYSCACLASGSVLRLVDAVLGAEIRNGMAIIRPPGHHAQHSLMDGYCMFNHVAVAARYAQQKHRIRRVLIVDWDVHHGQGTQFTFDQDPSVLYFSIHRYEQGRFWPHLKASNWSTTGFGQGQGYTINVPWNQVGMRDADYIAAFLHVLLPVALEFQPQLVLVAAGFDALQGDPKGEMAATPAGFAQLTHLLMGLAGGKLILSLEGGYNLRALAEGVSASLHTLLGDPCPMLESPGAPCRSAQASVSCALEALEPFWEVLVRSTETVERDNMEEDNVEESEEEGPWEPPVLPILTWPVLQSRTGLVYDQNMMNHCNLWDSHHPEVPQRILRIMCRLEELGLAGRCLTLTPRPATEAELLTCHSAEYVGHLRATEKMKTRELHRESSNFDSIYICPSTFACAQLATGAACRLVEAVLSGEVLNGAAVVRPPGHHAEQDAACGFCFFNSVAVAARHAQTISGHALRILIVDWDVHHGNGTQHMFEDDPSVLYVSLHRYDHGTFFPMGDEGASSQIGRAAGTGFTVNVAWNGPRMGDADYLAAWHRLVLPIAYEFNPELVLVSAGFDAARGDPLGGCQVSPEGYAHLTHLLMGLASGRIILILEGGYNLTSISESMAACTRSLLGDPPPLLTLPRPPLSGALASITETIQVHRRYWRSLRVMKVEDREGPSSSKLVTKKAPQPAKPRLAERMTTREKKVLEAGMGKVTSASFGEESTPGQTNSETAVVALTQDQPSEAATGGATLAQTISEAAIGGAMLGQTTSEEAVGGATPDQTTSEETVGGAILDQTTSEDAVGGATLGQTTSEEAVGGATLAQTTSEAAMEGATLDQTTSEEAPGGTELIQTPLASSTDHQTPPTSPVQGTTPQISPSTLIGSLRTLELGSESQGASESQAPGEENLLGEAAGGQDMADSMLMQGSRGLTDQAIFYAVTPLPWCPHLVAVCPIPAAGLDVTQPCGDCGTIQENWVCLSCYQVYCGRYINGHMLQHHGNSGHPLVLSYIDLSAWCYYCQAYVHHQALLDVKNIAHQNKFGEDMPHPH
Description: as §1

[1] = In vivo brain pharmacokinetic study; settings: ICR male mice, IV, 2 mg/kg
Description: The study was approved by the Institutional Animal Care and Use of Committee of Daegu-Gyeongbuk Medical Innovation Foundation (DGMIF) and performed in accordance with protocols approved by the Institutional Animal Care and Use of Committee. […] Brain and plasma samples were collected at 0.5 and 1 h time points. Brain samples were homogenized at a 1:4 ratio of sample weight (g) to PBS volume (mL). Aliquots (20 μL) of brain homogenate were mixed with 180 μL of acetonitrile, vortexed and centrifuged at 15,000 rpm for 5 minutes at 4 °C. The resulting supernatants were used for LC-MS/MS analysis. Mice plasma samples were collected at 0.5 and 1 h time points. 180 μL of acetonitrile was added to 20 μL of plasma samples, vortexed and centrifuged at 15,000 rpm for 5 minutes at 4 °C.

T3 sequence (Q13547 whole entry): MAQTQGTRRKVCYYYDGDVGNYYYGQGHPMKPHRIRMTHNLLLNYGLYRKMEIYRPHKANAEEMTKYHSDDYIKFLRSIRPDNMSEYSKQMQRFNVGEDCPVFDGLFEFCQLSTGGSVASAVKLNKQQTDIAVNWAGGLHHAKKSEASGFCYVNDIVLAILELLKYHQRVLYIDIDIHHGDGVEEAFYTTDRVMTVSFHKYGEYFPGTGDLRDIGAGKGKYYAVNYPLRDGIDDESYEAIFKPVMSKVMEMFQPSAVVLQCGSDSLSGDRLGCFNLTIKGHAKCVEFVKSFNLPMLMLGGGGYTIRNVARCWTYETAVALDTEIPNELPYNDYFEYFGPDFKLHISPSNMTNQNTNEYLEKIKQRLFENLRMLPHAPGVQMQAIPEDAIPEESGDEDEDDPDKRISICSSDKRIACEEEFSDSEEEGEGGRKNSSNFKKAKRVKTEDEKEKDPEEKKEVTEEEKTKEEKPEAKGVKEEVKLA
T1 sequence (O15379 whole entry): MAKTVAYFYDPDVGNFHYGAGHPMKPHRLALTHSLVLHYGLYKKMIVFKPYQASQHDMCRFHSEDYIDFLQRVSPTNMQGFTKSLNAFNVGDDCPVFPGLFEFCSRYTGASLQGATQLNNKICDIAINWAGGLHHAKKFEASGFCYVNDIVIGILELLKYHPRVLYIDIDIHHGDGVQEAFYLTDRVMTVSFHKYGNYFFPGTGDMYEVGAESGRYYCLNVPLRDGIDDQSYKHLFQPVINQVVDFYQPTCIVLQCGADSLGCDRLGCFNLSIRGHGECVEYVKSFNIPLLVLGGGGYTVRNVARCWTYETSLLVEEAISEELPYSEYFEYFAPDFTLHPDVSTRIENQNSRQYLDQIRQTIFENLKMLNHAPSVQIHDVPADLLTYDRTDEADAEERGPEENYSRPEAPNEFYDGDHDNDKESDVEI
T1 sequence (Q9Y618 395-489 partner limits assumed): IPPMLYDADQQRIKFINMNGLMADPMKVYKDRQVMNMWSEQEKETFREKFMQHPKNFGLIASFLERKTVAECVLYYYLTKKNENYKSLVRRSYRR

IC50 (HDAC3): 142 ± 45.7 nM
IC50 (HDAC7): 3040 nM
IC50 (HDAC1): 84.9 ± 25.1 nM
IC50 (HDAC6): 95.9 ± 0.78 nM
Brain concentration (ng/mL) 0.5 h ([1]; 0.5 h, n = 4): 414.6 ± 88.7 ng/mL
Brain concentration (ng/mL) 1 h ([1]; 1 h, n = 4): 52.9 ± 1.6 ng/mL
Kp at 0.5 h ([1]; mouse, brain/plasma, 0.5 h, read-out: Brain/plasma ratio 0.5 h): 9
Kp at 1 h ([1]; mouse, brain/plasma, 1 h, read-out: Brain/plasma ratio 1 h): 7.2
concentration at 0.5 h ([1]; mouse, brain, 0.5 h, n = 4, read-out: Brain concentration (ng/mL) 0.5 h): 415 ng/mL
concentration at 1 h ([1]; mouse, brain, 1 h, n = 4, read-out: Brain concentration (ng/mL) 1 h): 52.9 ng/mL
concentration at 0.5 h ([1]; mouse, plasma, 0.5 h, n = 4, read-out: Plasma concentration (ng/mL) 0.5 h): 46 ± 13.9 ng/mL
concentration at 1 h ([1]; mouse, plasma, 1 h, n = 4, read-out: Plasma concentration (ng/mL) 1 h): 7.3 ± 1 ng/mL
Compound: O=C(NO)c1ccc(-c2nc3ccccc3s2)cc1 [Compound 9b]
